Measurements as given in patent publication US20110263693A1, “CELASTROL, GEDUNIN, AND DERIVATIVES THEREOF AS HSP90 INHIBITORS” (DANA-FARBER CANCER INSTITUTE, INC., priority 2006, published 2011).

Assays:
celastrol signature = test: Connectivity Map query with the celastrol signature; assay type: cell-based, human; design: key to celastrol score (connectivity score): connectivity score, based on Kolmogorov-Smirnov statistic; settings: for celastrol score (connectivity score): enrichment of the celastrol signature (1.25 μM celastrol at 6 h, LNCaP) in the compound's Connectivity Map profiles, 6 hr treatment; for celastrol rank: rank by celastrol score among 164 Connectivity Map compounds
Description: (§1) Indeed, a major challenge in cell-based chemical biology and chemical genomics is the identification of compounds' targets (Gardner et al., 2003). We hypothesized that gene expression signatures could be used to identify compound action based on the similarity of such compound-induced signatures to signatures of existing drugs of known mechanism. We therefore employed a collection of gene expression profiles of drug-treated cell lines that was developed in our lab, termed the Connectivity Map (Lamb et al., 2006). This database comprises 453 genome-wide Affymetrix expression profiles derived from the treatment of human cell lines with 164 small molecules, primarily FDA-approved drugs. A 6 hr treatment time was chosen in an attempt to capture the primary, and potentially mechanistic, effects of the compounds rather than the downstream phenotypic consequences.
(§2) In order to use the Connectivity Map to gain insight into celastrol and gedunin function, we first defined a gene expression signature of celastrol and gedunin activity. The expression signatures of celastrol and gedunin were derived by expression profiling of RNA from LNCaP cells treated with celastrol (1.25 μM), gedunin (20 μM), and vehicle (DMSO) for 6 hr; signatures were defined using comparative marker selection to identify transcripts that distinguished between the compound- and vehicle-treated profiles by the signal-to-noise (SNR) metric. The enrichment of these signatures in the gene expression profiles of the Connectivity Map database was then assessed using a gene enrichment metric, the connectivity score, based on the Kolmogorov-Smirnov statistic (Lamb et al., 2003).
(§3) The celastrol and gedunin signatures were developed from RMA-processed microarray data from LNCaP cells treated with 1.25 μM celastrol or 20 μM gedunin for 6 hours. Comparative marker selection was used to identify markers that distinguished celastrol- and/or gedunin-treated samples from vehicle-treated samples by the median SNR (Golub et al., 1999). The top 50 markers that increased and decreased relative to vehicle-treated controls were used as the signatures.
(§4) The current version of the Connectivity Map data set (build01) contains genome-wide expression data for 453 treatment and vehicle control pairs, representing 164 distinct small molecules. Cell treatments and Affymetrix profiling were predominantly carried out in MCF7 cells with 6 hr treatments as detailed (Table 4) (Lamb et al., 2006). Enrichment of the induced and repressed genes of a signature within each Connectivity Map treatment profile was estimated with a metric based on the Kolmogorov-Smirnov statistic as described (Lamb et al., 2003, Lamb et al., 2006). Connectivity Map data are available at www.broad.mit.edu/cmap/ and GEO (accession number GSE5258).
(§5) For the celastrol and gedunin signatures, RMA-processed data was filtered and thresholded (min fold change=2, min absolute change=50, floor=10, ceiling=16000). Comparative marker selection (GenePattern) was used to identify markers that distinguished celastrol- and/or gedunin-treated samples from vehicle-treated samples by the median SNR. The top fifty markers that increased and decreased relative to vehicle treated controls were used as the celastrol, gedunin, or joint celastrol/gedunin signatures.
(§6) The current version of The Connectivity Map dataset (build01) contains genome-wide expression data for 453 treatment and vehicle control pairs, representing 164 distinct small molecules. Cell treatments were predominantly carried out in the MCF7 cell line for 6 h as detailed in Table 4. Affymetrix profiling was then carried out as described (Lamb et al., 2006).

gedunin signature = test: Connectivity Map query with the gedunin signature; assay type: cell-based, human; design: key to gedunin score (connectivity score): connectivity score, based on Kolmogorov-Smirnov statistic; settings: for gedunin score (connectivity score): enrichment of the gedunin signature (20 μM gedunin at 6 hours, LNCaP) in the compound's Connectivity Map profiles, 6 hr treatment; for gedunin rank: rank by gedunin score among 164 Connectivity Map compounds
Description: as §1, §2, §3, §4, §5, §6

Compound | celastrol score (connectivity score) (celastrol signature) | celastrol rank (celastrol signature) | gedunin score (connectivity score) (gedunin signature) | gedunin rank (gedunin signature)
C=C1[C@@H](C)[C@H]2[C@H](Cc3ccccc3)NC(=O)[C@]23OC(=O)/C=C/[C@H](O)CCC[C@@H](C)C/C=C/[C@H]3[C@@H]1O [cytochalasin B] | 0 | 125 | 0.476 | 22
Nc1ncn([C@H]2C[C@H](O)[C@@H](CO)O2)c(=O)n1 [decitabine] | 0 |  | 0 | 
CC(=O)N(O)CCCCCNC(=O)CCC(=O)N(O)CCCCCNC(=O)CCC(=O)N(O)CCCCCN [deferoxamine] | −0.175 |  | 0 | 
CN[C@H]1CCc2cc(OC)c(OC)c(OC)c2-c2ccc(OC)c(=O)cc21 [demecolcine] | 0 |  | 0 | 
C[C@@H]1C[C@H]2[C@@H]3CCC4=CC(=O)C=C[C@]4(C)[C@@]3(F)[C@@H](O)C[C@]2(C)[C@@]1(O)C(=O)CO [dexamethasone, reference compound] | 0 |  | 0 | 
O=C(O)Cc1ccccc1Nc1c(Cl)cccc1Cl [diclofenac] | −0.197 |  | −0.165 | 
COC(=O)CNC(=O)C(=O)OC [dimelhyloxalylglycine] | 0.326 | 44 | 0 | 119
CC/C=C\C/C=C\C/C=C\C/C=C\C/C=C\C/C=C\CCC(=O)OCC [docosahexaenoic acid ethyl ester] | 0.572 | 14 | 0.493 | 21
NCCc1ccc(O)c(O)c1 [dopamine] | −0.596 |  | 0 | 
C[C@H]1c2cccc(O)c2C(=O)C2=C(O)[C@]3(O)C(=O)C(C(N)=O)=C(O)[C@@H](N(C)C)[C@@H]3[C@@H](O)[C@@H]21 [doxycycline] | 0 |  | 0 | 
C[C@]12CC[C@@H]3c4ccc(O)cc4CC[C@H]3[C@@H]1CC[C@@H]2O [estradiol] | 0.017 |  | −0.166 | 
C=C1C[C@@H]2[C@H](CC[C@]3(C)C(=O)CC[C@@H]23)[C@@]2(C)C=CC(=O)C=C12 [exemestane] | 0.427 |  | 0 | 
CC1=C(CC(=O)O)c2cc(F)ccc2/C1=C\c1ccc(S(C)(=O)=O)cc1 [exisulind] | −0.038 |  | −0.277 | 
O=S(=O)(c1cccc2cnccc12)N1CCCNCC1 [fasudil] | 0 |  | 0 | 
CCOC(=O)C1=C(C)NC(C)=C(C(=O)OC)C1c1cccc(Cl)c1Cl (stereo not drawn) [felodipine] | 0.171 |  | 0.171 | 
O=c1c(O)c(-c2ccc(O)c(O)c2)oc2cc(O)ccc12 [fisetin] | 0 |  | 0 | 
C[C@]12CCC(=O)C=C1CC[C@H]1[C@@H]3CC[C@](O)(C(=O)CO)[C@@]3(C)C[C@H](O)[C@@]12F [fludrocortisone] | 0 |  | 0 | 
O=C(O)c1ccccc1Nc1cccc(C(F)(F)F)c1 [flufenamic acid] | 0 |  | 0 | 
OCCN1CCN(CCCN2c3ccccc3Sc3ccc(C(F)(F)F)cc32)CC1 [fluphenazine] | 0.481 |  | 0.34 | 
C[C@]12CC[C@@H]3c4ccc(O)cc4C[C@@H](CCCCCCCCC[S+]([O-])CCCC(F)(F)C(F)(F)F)[C@H]3[C@@H]1CC[C@@H]2O (stereo partly drawn) [fulvestrant] | 0.069 |  | 0.19 | 
COc1cc2ncnc(Nc3ccc(F)c(Cl)c3)c2cc1OCCCN1CCOCC1 [gefitinib] | −0.713 |  | 0 | 
